PMC6934184, “Selective DNA-PKcs inhibition extends the therapeutic index of localized radiotherapy and chemotherapy” (The Journal of Clinical Investigation, 2019)

Target: T1, RIPK3 (Homo sapiens, UniProt Q9Y572)
T1 construct: purchased Thermo Fisher Scientific (Life Technologies) SelectScreen
Experiment: SelectScreen LanthaScreen
Format: binding
Conditions: read-out: % displacement
Summary of the method: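 NU5455 was profiled across the SelectScreen Broad panel of kinase activity and binding assays. Z'LYTE reactions such as CSF1R ran at apparent Km ATP, while the Adapta CAMK1 assay used ATP listed as 10. Values are given as percent.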

T1 sequence (Q9Y572 whole entry): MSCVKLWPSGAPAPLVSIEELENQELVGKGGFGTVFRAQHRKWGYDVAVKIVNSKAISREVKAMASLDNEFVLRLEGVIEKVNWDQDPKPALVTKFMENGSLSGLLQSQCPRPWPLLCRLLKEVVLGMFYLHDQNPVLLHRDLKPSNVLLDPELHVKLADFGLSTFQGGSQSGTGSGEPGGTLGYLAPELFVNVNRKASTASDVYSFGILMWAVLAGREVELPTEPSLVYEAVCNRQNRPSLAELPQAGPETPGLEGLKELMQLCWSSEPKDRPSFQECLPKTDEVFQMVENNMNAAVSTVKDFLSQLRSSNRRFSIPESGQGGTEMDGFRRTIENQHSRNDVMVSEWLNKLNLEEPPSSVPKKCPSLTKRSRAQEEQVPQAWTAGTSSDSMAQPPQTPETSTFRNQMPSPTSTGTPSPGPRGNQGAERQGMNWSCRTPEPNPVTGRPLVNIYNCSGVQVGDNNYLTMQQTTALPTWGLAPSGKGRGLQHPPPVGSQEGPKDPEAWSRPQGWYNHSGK

Q: How did the inhibition at 1 µM turn out when `CN(C(=O)CN1CCOCC1)c1ccc2sc3c(-c4cccc5c(=O)cc(N6CC7CCC(C6)O7)oc45)cccc3c2c1` [NU5455] was run?
A: The inhibition at 1 µM was -2.3%.
